This is an account of results in the OPERA property sets (Mansouri et al. 2018).

In brackets after ≈: the same amount, converted by molar mass. Bounds are passed on as bounds.

`CCC(C)(NC(=O)c1cc(Cl)c(C)c(Cl)c1)C(=O)CCl` (configuration not stated) yielded a log partition coefficient (logP) of 3.76.
`CCSC(=O)N(CC)C1CCCCC1` gave a logP of 3.88. This logP and that of the compound before are within 0.2 log units of each other.
Regarding `CN1CSC(=S)N(C)C1`, the logP is 0.63. This compound also showed a solubility (20 °C) of 18.5 mM (≈ 3000 µg/mL).
`O=[N+]([O-])/N=C1\NCCN1Cc1ccc(Cl)nc1` showed a log partition coefficient (logP) of 0.57.
Consider `CC(C)=CC1C(C(=O)OCc2cccc(Oc3ccccc3)c2)C1(C)C` (configuration not stated), for which the log partition coefficient (logP) stood at 6.01. In addition, the solubility (25 °C) was under 2.77e-05 mM.
`Fc1ccc(Oc2ccnc3cc(Cl)cc(Cl)c23)cc1` returned a logP of 4.66. Besides, the solubility (20 °C) was 0.000376 mM (≈ 0.116 µg/mL).
On to `CN(C)C(=S)SSC(=S)N(C)C`, for which the logP was determined as 1.73.
Consider `N#CN`, for which the logP is -0.82. The same compound registered a solubility (20 °C) of 11900 mM (≈ 500000 µg/mL).
For `CCC(CC)Nc1c([N+](=O)[O-])cc(C)c(C)c1[N+](=O)[O-]` the same measures were 5.2 and 0.00107 mM (≈ 0.3 µg/mL).
For the setting “20 °C”, `CCCCNC1(P(=O)(OCCCC)OCCCC)CCCCC1` came in with a solubility of 0.489 mM (≈ 170 µg/mL).
As for `CCOC(=O)COc1cc(-c2nn(C)c(OC(F)F)c2Cl)c(F)cc1Cl`, the logP was 3.49.
As for `CON=C(C(=O)OC)c1ccccc1CON=C(C)c1cccc(C(F)(F)F)c1`, the logP was determined as 4.5.
Still for that read-out and setting: for `CC1(C(=O)Nc2ccc(O)c(Cl)c2Cl)CCCCC1` the value was 3.51.
`COC(=O)c1ccccc1CS(=O)(=O)NC(=O)Nc1nc(OC)cc(OC)n1` displayed a lipophilicity (logP) of 2.18.
Still for that read-out and setting: next, `CCCC(=O)N(CSP(=S)(OC)OC)c1ccccc1Cl`: 0.56.
In turn, `Clc1ccc(C2(Cn3cncn3)CC(Br)CO2)c(Cl)c1` (configuration not stated) gave a logP of 3.24. Where the note is “25 °C”, this compound returned a solubility of 0.133 mM (≈ 50 µg/mL).
As for `CC1=C(C(=O)Nc2ccccc2)SCCO1`, under “20 °C”, the solubility was found to be 0.672 mM (≈ 158 µg/mL).
Consider `C/C=C(\C)C(=O)O[C@H]1C[C@@H](OC(C)=O)[C@@]2(C(=O)OC)CO[C@H]3[C@@H](O)[C@@](C)([C@]45O[C@@]4(C)[C@H]4C[C@@H]5O[C@@H]5OC=C[C@@]54O)[C@H]4[C@]1(CO[C@]4(O)C(=O)OC)[C@@H]32`, for which the solubility amounted to 0.361 mM (≈ 260 µg/mL).
With `O=C(Nc1ccccc1-c1ccc(Cl)cc1)c1cccnc1Cl`, the lipophilicity (logP) was 2.96.
Take `CC(C)N1C(=O)N(c2ccccc2)CSC1=NC(C)(C)C`: the log partition coefficient (logP) was 4.3. For the same compound, the solubility (20 °C) came to 0.00295 mM (≈ 0.9 µg/mL).
As to `N#Cc1c(Cl)c(Cl)c(Cl)c(C#N)c1Cl`, under “25 °C”, the solubility was 0.00226 mM (≈ 0.6 µg/mL). In other words, the single-digit micromolar range.
`CCCCC(CC)COC(=O)COc1ccc(Cl)cc1Cl` (configuration not stated): the lipophilicity (logP) worked out at 5.78.
The compound `CCCCOC(=O)[C@@H](C)Oc1ccc(Oc2ccc(C#N)cc2F)cc1` showed a logP of 3.31.
Regarding `Cc1ccc2nc3sc(=O)sc3nc2c1`, the logP came to 3.78. For the same compound, the solubility (20 °C) was 0.00427 mM (≈ 1 µg/mL).
`COC(=O)c1ccccc1S(=O)(=O)NC(=O)N(C)c1nc(C)nc(OC)n1` had a solubility (pH 5.0, 25 °C) of 0.126 mM (≈ 50 µg/mL).
Regarding `Nc1nc[nH]n1`, the log partition coefficient (logP) is -0.97.
`CC(C)=CC1C(C(=O)OCc2coc(Cc3ccccc3)c2)C1(C)C` (configuration not stated) returned a solubility (25 °C) of 0.000315 mM (≈ 0.107 µg/mL).
Turning to `CCOP(=O)(OCC)SCCSCC`, the solubility (20 °C) was determined as 7.74 mM (≈ 2000 µg/mL).
The compound `O=[N+]([O-])c1cc(C(F)(F)F)c(Cl)c([N+](=O)[O-])c1Nc1ncc(C(F)(F)F)cc1Cl` came in with a logP of 4.01.
Consider `C#CCOS(=O)OC1CCCCC1Oc1ccc(C(C)(C)C)cc1` (configuration not stated), for which the solubility (25 °C) amounted to 0.00143 mM (≈ 0.5 µg/mL). In other words, the single-digit micromolar range.
Compound `CC1OC(C)OC(C)OC(C)O1` (configuration not stated) gave a logP of 0.12.
Take `C=CCOC(Cn1ccnc1)c1ccc(Cl)cc1Cl` (configuration not stated): the logP was 3.82. For the same compound, the solubility (pH 7.6, 20 °C) stood at 0.606 mM (≈ 180 µg/mL).
Turning to `CCCCCCCC(=O)Oc1c(Br)cc(C#N)cc1Br`, the logP came out at 5.4.
As to `CCCC1COC(Cn2cncn2)(c2ccc(Cl)cc2Cl)O1` (configuration not stated), the logP was 3.72. The solubility (20 °C) is 0.321 mM (≈ 110 µg/mL).
`CCN(CC)c1c([N+](=O)[O-])cc(C(F)(F)F)c(N)c1[N+](=O)[O-]` showed a logP of 4.3.
Take `C[n+]1ccc(-c2cc[n+](C)cc2)cc1`: the solubility (20 °C) is 2410 mM.
Take `O=C(Nc1ccccc1)Nc1cnns1`: the log distribution coefficient (logD) (pH 7.3) was determined as 1.77.
As to `CC(Oc1cccc(Cl)c1)C(=O)O` (configuration not stated), the solubility (22 °C) stood at 5.98 mM (≈ 1200 µg/mL).
For the compound `C[n+]1ccc(-c2cc[n+](C)cc2)cc1.[Cl-].[Cl-]`, the logP is -4.5. The solubility (20 °C) was 2720 mM.
Compound `Nc1c(Cl)c(Cl)nc(C(=O)O)c1Cl` returned a logP of 1.9.
Consider `C[C@@H]1[C@@H](c2ccc(Cl)cc2)SC(=O)N1C(=O)NC1CCCCC1` (single isomer, unassigned), for which the solubility (20 °C) is 0.00142 mM (≈ 0.5 µg/mL).
Still for that read-out and setting: next, `CSc1nnc(C(C)(C)C)c(=O)n1/N=C/C(C)C`: 0.0373 mM (≈ 10 µg/mL).
In turn, `CCC(C)(CC)c1cc(NC(=O)c2c(OC)cccc2OC)on1` registered a logP of 3.94.
The same measure, in the same setting: next, `CN/C(=N\[N+](=O)[O-])NCc1cnc(Cl)s1`: 0.7.
Same read-out and setting: for `COC(=O)N(OC)c1ccccc1COc1ccn(-c2ccc(Cl)cc2)n1` the value was 3.99; for `COC(=O)N(C(=O)N1CO[C@@]2(C(=O)OC)Cc3cc(Cl)ccc3C2=N1)c1ccc(OC(F)(F)F)cc1`, 4.65.
Regarding `CCCN(CC1CC1)c1c([N+](=O)[O-])cc(C(F)(F)F)cc1[N+](=O)[O-]`, for the setting “20 °C”, the solubility worked out at 0.000288 mM (≈ 0.1 µg/mL). This lies in the sub-micromolar range.
Take `COC(=O)c1ccccc1S(=O)(=O)NC(=O)Nc1nc(C)cc(C)n1`: the solubility (pH 7.0, 25 °C) was determined as 0.743 mM (≈ 271 µg/mL).
Compound `CCOC1Oc2ccc(OS(C)(=O)=O)cc2C1(C)C` (configuration not stated) registered a logP of 2.7. The solubility (25 °C) was 0.259 mM (≈ 74.1 µg/mL).
The compound `CC1=C(C(=O)Nc2ccccc2)S(=O)(=O)CCO1` registered a logP of 0.77. The compound also came in with a solubility (25 °C) of 4.43 mM (≈ 1180 µg/mL).
In the case of `CC(C)N(C(=O)CCl)c1ccccc1`, under “25 °C”, the solubility was 3.31 mM (≈ 700 µg/mL).
On to `CCN(Cc1ccc(Cl)nc1)/C(=C/[N+](=O)[O-])NC`, for which the logP was -0.66.
For the setting “pH 9.2, 20 °C”, `Nc1c(Cl)c(F)nc(OCC(=O)O)c1Cl` had a solubility of 0.357 mM (≈ 91 µg/mL).
For the setting “20 °C”, `N#CCON=C(C#N)c1ccccc1` displayed a solubility of 0.513 mM (≈ 95 µg/mL).

The term logP denotes a log measure of how a compound divides between an organic and an aqueous phase. High values mean a more lipophilic compound, low ones a more hydrophilic compound. A word on the solubility: it is the concentration that dissolves in the medium under given conditions. Read a low solubility as a poorly soluble substance. In general, logD refers to lipophilicity at a set pH, counting ionised and neutral species. Low values mean lower lipophilicity, high ones higher lipophilicity.
